Values joined by “and” are separate entries in the source; they are usually repeats but may differ in a detail not shown here. Equal entries are not always repeated. Where two headings read alike, the source gives them in different places.
Columns and labels:
[1] = Chemical stability in phosphate buffer; format: physicochemical; conditions: chemical stability in 10 mM phosphate buffer at pH 7.4; 60 days at room temperature
Method: The purity and solubility of the compounds was determined by an analytical HPLC-UV method using an LC-MS instrument (Applied Biosystems API 2000 LC/ESI-MS; HPLC Agilent 1100 binary pump system) coupled with a diode array detector (DAD) with an UV absorption in the range from 220 to 400 nm. Mass spectra were recorded on an API 2000 mass spectrometer equipped with an electrospray ion source (ESI) by using triple ion quadrupole (TIC) with an alternating full scan detection in positive (+Q) and/or negative (-Q) mode. As mobile phases for the different analytical LC methods were used methanol (Sigma-Aldrich, Chromasolv LC-MS grade), ammonium acetate (2.0 mM) and water Purelab flex.
500 µL of a 10 mM compound stock solution in DMSO, ACN or MeOH was added to a 2.0 mL HPLC glass vial containing 500 µL phosphate buffer (10 mM, pH 7.4) and sonicated for 60 sec. The sample was shaken at 37 °C for 2 hours and then left for 60 days at room temperature under light exposure. The chemical stability of compounds was checked by UV-visible spectroscopy (Figure S1).

human recombinant MAO-A = biological target: T1, human recombinant MAO-A (Homo sapiens, UniProt P21397); format: biochemical
T1 construct: purchased Sigma-Aldrich M7316; host or cells: baculovirus-infected BTI-TN-5B1-4 insect cells (microsomes)
T1 sequence (P21397 1-527): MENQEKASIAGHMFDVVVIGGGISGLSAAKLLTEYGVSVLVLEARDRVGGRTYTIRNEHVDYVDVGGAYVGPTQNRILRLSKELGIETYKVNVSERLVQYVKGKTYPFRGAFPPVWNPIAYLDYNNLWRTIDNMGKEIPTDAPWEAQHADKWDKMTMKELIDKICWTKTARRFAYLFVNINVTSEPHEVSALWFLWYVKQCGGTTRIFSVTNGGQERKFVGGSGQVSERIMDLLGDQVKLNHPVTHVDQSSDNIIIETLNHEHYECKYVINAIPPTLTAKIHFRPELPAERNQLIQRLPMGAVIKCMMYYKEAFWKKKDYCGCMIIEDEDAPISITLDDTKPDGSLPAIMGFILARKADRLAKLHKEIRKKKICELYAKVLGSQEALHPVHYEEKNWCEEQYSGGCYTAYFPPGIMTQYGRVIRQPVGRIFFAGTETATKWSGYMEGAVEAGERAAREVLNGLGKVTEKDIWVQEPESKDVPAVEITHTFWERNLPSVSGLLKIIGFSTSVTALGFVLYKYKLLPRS

hMAO-B [2] = biological target: T2, hMAO-B (Homo sapiens, UniProt P27338); conditions: at IC80: NTZ compounds 1.0 nM, selegiline 30 nM, safinamide 50 nM; p-tyramine raised to 1.0 mM after 22 min
T2 sequence (P27338 1-520): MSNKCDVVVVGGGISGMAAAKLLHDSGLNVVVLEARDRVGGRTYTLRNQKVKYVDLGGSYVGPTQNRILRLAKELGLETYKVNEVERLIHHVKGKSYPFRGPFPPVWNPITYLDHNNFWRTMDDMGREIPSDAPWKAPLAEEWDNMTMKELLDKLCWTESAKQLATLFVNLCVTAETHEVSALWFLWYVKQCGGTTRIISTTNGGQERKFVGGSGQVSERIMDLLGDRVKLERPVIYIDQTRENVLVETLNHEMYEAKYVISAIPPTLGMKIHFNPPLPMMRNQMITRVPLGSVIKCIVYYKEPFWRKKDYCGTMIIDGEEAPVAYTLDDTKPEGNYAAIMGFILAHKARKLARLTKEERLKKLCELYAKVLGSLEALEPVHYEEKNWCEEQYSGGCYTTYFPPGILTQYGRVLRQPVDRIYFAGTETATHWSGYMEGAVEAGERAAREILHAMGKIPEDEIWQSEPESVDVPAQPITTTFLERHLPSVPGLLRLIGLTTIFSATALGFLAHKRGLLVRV
Method: (§1) final concentration) MAO-B inhibitors were used as references. Indazole-based compounds (1.0 nM final
(§2) concentration) as well as reference inhibitors were studied at their IC80 values without pre-incubation of
(§3) the hMAO-B enzyme/inhibitor mixtures. Control experiments without inhibitors were run for each
(§4) compound. The enzyme reaction was started by adding 10 µM of the substrate p-tyramine and the
enzymatic activity of the tested compounds was measured for 22 min. Then, the substrate concentration
fluorescence measurements for 5 h.
The measurements were conducted
(§5) in duplicate using the same hMAO-B assay conditions as described for the determination of IC50 values.

[3] = Octanol-water distribution coefficient (logD); conditions: for logD7.4: measured, pH 7.4 in 60 mM phosphate buffer at rt
[4] = Solubility studies (HPLC-UV/ESI-MS; kinetic solubility); format: physicochemical; conditions: measured, solubility in mol/L at pH 7.4 in 60 mM phosphate buffer or pure water at rt; for solubility: 60 mM phosphate buffer or pure water, pH 7.4, aqueous buffer, read-out: logS7.4
hMAO-B [5] = biological target: T2, hMAO-B; test: MAO-B kinetic experiments (Lineweaver-Burk); format: biochemical; set-up: purchased Sigma-Aldrich M7441; host or cells: baculovirus-infected BTI-TN-5B1-4 insect cells (microsomes); conditions: 0.5 and 1.0 nM inhibitor, varied p-tyramine
Method: as §1, §2, §3, §4
enzymatic activity of the tested compounds was measured for 22 min.
The catalytic rates of hMAO-B were measured at different
The measurements were conducted
as §5

[6] = PAMPA-BBB permeability assay; conditions: for PAMPA-BBB −logPe: 4 h under stirring, Prisma HT buffer; for CNS+/– Prediction: from PAMPA-BBB permeability, limit for BBB permeation Pe > 4.0 × 10^−6 cm/s
Method: (§6) Measurements were performed at room temperature with incubation for 4 h under stirring.
(§7) Parallel Artificial Membrane Permeability Assay (PAMPA)
(§8) Determination of blood-brain barrier (BBB) permeability was performed using the PAMPA Explorer kit
(§9) (Pion, Inc.). Stock solutions of tested and standard compounds were prepared in DMSO (10 mM and 50
(§10) The corresponding stock solutions were diluted to a final
(§11) concentration of 10 µM and 50 µM (5.0 µL/well, 1% v/v final DMSO concentration) with pH 7.4 Prisma
(§12) HT buffer solution in deionized water (Pion) using a deep-well plate. The first row of this plate was filled
(§13) with DMSO. For the preparation of pH-dependent PAMPA experiments, the pH of Prisma solution was
(§14) adjusted to pH 3.0 or 6.2 by adding aliquots of 0.5 M NaOH. The resulting solution (200 µL) was added
(§15) to each well of the donor plate (n = 6).
(§16) the acceptor plate was coated with 5 µL/well of the GIT-0 lipid (Pion) formulation and placed on the top
(§17) of the donor plate to form a “sandwich” plate. Then, 200 µL of brain sink buffer (BSB, Pion) was added
(§18) to each well of the acceptor plate. The “sandwich” plate was incubated in a Good-Box (Pion) at 37 °C for
(§19) 4 h with stirring at 60 (ABL t.u.). After that, 150 µL/well of each well of the “sandwich” plates were
(§20) transferred into the corresponding UV read acceptor and donor plates. A blank UV read 96-well plate with
(§21) 150 µL/well of each buffer solution was prepared. An Epoch microplate reader was used to obtain the
(§22) UV-vis spectra (250–500 nm) of the solutions in the blank, acceptor, and donor plates. The Pe and –logPe
(§23) values for each compound were processed using the PAMPA Explorer software v.3.8 (Pion).

[7] = Solubility studies (HPLC-UV/ESI-MS; kinetic solubility); format: physicochemical; conditions: thermodynamic from solid
Method: Solid […]
samples of compounds (2–4 mg) were weighed and serial diluted in 1.0 mL either of water (Purelab flex) or water-methanol (1:1). A precisely weighed sample of the respective compound in methanol (1.0 ± 0.05 mg/mL) was used as a reference. A blank solution without detectable analyte was used for instrument calibration for each experiment. The suspensions were mixed on a vortex for 5 min, sonicated for 1 h, and then shaken over night at rt. After that, the samples were left for 1 h at rt and then filtered through a 0.45 µm filter. Aliquots (10 µL) of each sample were injected into the HPLC/ESI-MS system (Applied
(1 picture or pasted object on this page, not shown here)
Biosystems API 2000 ESI-MS, HPLC Agilent 1100 binary pump system) equipped with a Phenomenex Luna C18 reverse phase column and subsequently measured by chromatographic procedure (DAD detection) with mass conformation (MS scan in positive and negative mode). The mass scan method was adapted for each tested compound depending on its limit of detection (LOD) and physicochemical properties (Table S1, Figure S2). The solubility of the compounds was calculated by Analyst software v.
1.5.1 (AB Sciex Pte. Ltd.) using one point calibration after subtraction the absorbance of the blank solution from the total analyte peak area measured for each sample in the experiments. To verify the results, an equimolar mixture (each in a concentration equal to 1.0 mg/mL) of the compounds in methanol was prepared and measured under the same conditions as described above (see Figure 4A). All experiments were performed in triplicate with at least three analytical runs for each sample.
The solubility data for tested compounds, obtained from the different analytical techniques, are […]
Table S1. Solubility data for selected compounds.
Compd. Methoda Solubility in 50% methanolb Solubility in waterb […]
a Method of detection: HPLC-UV method 1 (DAD), HPLC/ESI-MS method 2 (+Q/–Q scan: +MI+H+/– MI–H–). b The values are the mean ± SD (n ≥ 3).

[8] = PAMPA-BBB standard drugs; cited from earlier work
[9] = PAMPA
Method: as §6, §7, §8, §9, §10, §11, §12, §13, §14, §15, §16, §17, §18, §19, §20, §21, §22, §23

[10] = pure water (Purelab flex), water, method 1: HPLC-UV (DAD), read-out: Solubility in water Sw
[11] = pure water (Purelab flex), water, method 1: HPLC-UV (DAD), read-out: Solubility in water logSw
[12] = pure water (Purelab flex), water, method 2: HPLC/ESI-MS, read-out: Solubility in water logSw
[13] = pure water (Purelab flex), water, pure water, mean ± SD (n ≥ 3), read-out: Solubility in water
[14] = water-methanol (1:1), aqueous with cosolvent or surfactant or cyclodextrin, mean ± SD (n ≥ 3), read-out: Solubility in 50% methanol
[15] = water-methanol (1:1), aqueous with cosolvent or surfactant or cyclodextrin, method 1: HPLC-UV (DAD), read-out: Solubility in 50% methanol S
[16] = water-methanol (1:1), aqueous with cosolvent or surfactant or cyclodextrin, method 1: HPLC-UV (DAD), read-out: Solubility in 50% methanol logS
[17] = water-methanol (1:1), aqueous with cosolvent or surfactant or cyclodextrin, method 2: HPLC/ESI-MS, read-out: Solubility in 50% methanol logS
[18] = pure water (Purelab flex), water, method 2: HPLC/ESI-MS, read-out: Solubility in water Sw
[19] = water-methanol (1:1), aqueous with cosolvent or surfactant or cyclodextrin, method 2: HPLC/ESI-MS, read-out: Solubility in 50% methanol S
[20] = PAMPA-BBB validation with standard drugs

Row | SMILES | Stability [1] | mode of interaction with hMAO-B (reversible or irreversible) (hMAO-B [2]) | logS7.4 [4] | PAMPA-BBB −logPe [6] | Papp at 4 h, 10 µM ([6]; PAMPA, pH 7.4) [nm/s] | solubility [7, 10] | solubility [7, 11] [µM] | solubility [7, 12] [µM] | solubility [7, 13] | solubility [7, 14] | solubility [7, 15] | solubility [7, 16] [µM] | solubility [7, 17] [µM] | Reported –logPe [8] | other results
1 | O=C(Nc1ccc(Cl)c(Cl)c1)c1ccc2[nH]ncc2c1 [NTZ-1006] | Stable | reversible inhibitors of hMAO-B | – | – | – | – | – | – | – | – | – | – | – | – | IC50 (human recombinant MAO-A): > 10 µM
2 | O=C(Nc1ccc(F)c(Cl)c1)c1ccc2[nH]ncc2c1 [NTZ-1032] | Stable | – | – | – | – | – | – | – | – | – | – | – | – | – | –
3 | O=C(Nc1ccc(F)c(F)c1)c1ccc2[nH]ncc2c1 [NTZ-1034] | Stable | – | −4.22 | – | – | – | – | – | – | – | – | – | – | – | logD7.4 [3]: 2.04
4 | Cn1ncc2cc(C(=O)Nc3ccc(Cl)c(Cl)c3)ccc21 [NTZ-1091] | Stable | reversible inhibitors of hMAO-B | −4.75 | 3.91 | 1180 ± 64 | 0.75 µg/mL and 2.36 µM | 2.34 | 17.8 | 5.62 µg/mL and 17.6 µM | 156 µg/mL and 490 µM | 105 µg/mL and 300 µM | 331 | 447 | – | type of hMAO-B inhibition (Lineweaver–Burk) (hMAO-B [5]): linear and intersected at the Y-axis
5 | Cn1ncc2cc(C(=O)Nc3ccc(F)c(Cl)c3)ccc21 [NTZ-1441] | Stable | – | −3.87 | 3.84 | 1440 ± 34 | 10.6 µg/mL and 34.9 µM | 34.7 | 135 | 42.1 µg/mL and 136 µM | 609 µg/mL and 2040 µM | 663 µg/mL and 2190 µM | 2190 | 2040 | – | logD7.4 [3]: 2.19; logD ([3]; octanol/water, pH 7.4): < 3; solubility [4]: > 100 µM; solubility [7, 18]: 136 ± 5.16 µM; solubility [7, 19]: 0.609 ± 0.0487 mg/mL
6 | Cn1ncc2cc(C(=O)Nc3ccc(F)c(F)c3)ccc21 [NTZ-1471] | Stable | – | −3.67 | 3.83 | 1480 ± 24 | 10.4 µg/mL and 36.3 µM | 38.9 | 214 | 61.6 µg/mL and 215 µM | 610 µg/mL and 2120 µM | 631 µg/mL and 2180 µM | 2190 | 2140 | – | solubility [4]: > 100 µM; CNS+/– Prediction [6]: CNS+; solubility [7, 18]: 214 ± 33.3 µM; solubility [7, 19]: 0.61 ± 0.0262 mg/mL
7 | CC(=O)[C@H]1CC[C@H]2[C@@H]3CCC4=CC(=O)CC[C@]4(C)[C@H]3CC[C@]12C [Progesterone, reference compound] | – | – | – | – | – | – | – | – | – | – | – | – | – | 3.7 ± 0.25 | Papp at 4 h ([6]; PAMPA, pH 7.4): 552 ± 0.2 nm/s; Experiment –logPe [6, 20]: 4.26 ± 0.00; CNS+/– Prediction [6]: CNS+
8 | CC(C)NCC(O)COc1cccc2ccccc12.Cl (stereo not shown) [Propranolol HCl, reference compound] | – | – | – | – | – | – | – | – | – | – | – | – | – | 4.1 ± 0.25 | CNS+/– Prediction [9]: CNS+; Experiment Pe [6, 20]: 98.7 ± 9.96 10-6 cm/s; Experiment –logPe [6, 20]: 4.01 ± 0.04
9 | C[C@H](NCc1ccc(OCc2cccc(F)c2)cc1)C(N)=O [Safinamide, reference compound] | – | reversible | – | – | – | – | – | – | – | – | – | – | – | – | –
10 | Cn1c(=O)c2[nH]cnc2n(C)c1=O [Theophylline] | – | – | – | – | – | – | – | – | – | – | – | – | – | > 6.0 ± 0.25 | –

Source: article PMC6445166, “Subnanomolar indazole-5-carboxamide inhibitors of monoamine oxidase B (MAO-B) continued: indications of iron binding, experimental evidence for optimised solubility and brain penetration” (Journal of Enzyme Inhibition and Medicinal Chemistry, 2017)
